Assay results as given in US9988400B2 (Genentech, Inc., priority 2013, dated 2018).

Target: T1, HEK cells stably transfected with tetracycline inducible hNR1 and hNR2A (Homo sapiens, UniProt Q05586+Q12879)
T1 construct: expressed in transfected cells; host or cells: HEK cells, stably transfected, tetracycline/doxycycline inducible
Test: Assay 1: Cell-Based Assay, cytosolic calcium response to positive allosteric modulators (with 30 μM glycine and 300 nM L-glutamate, EC30)
Settings: for EC50: cytosolic calcium response, with 30 μM glycine and 300 nM L-glutamate (EC30), — = no plateau was reached; for Max %: responses scaled relative to 100 μM L-glutamate maximal response (100%) and 0 μM L-glutamate (0%)
Method in brief: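 Cells induced 24 h with 7.5 μg mL^−1 doxycycline plus 500 μM (+)-ketamine, loaded 60 min at 37 °C with calcium dye in Mg-free HBSS (1.8 mM Ca, probenecid, 10 μM (+)-ketamine, pH 7.15). Peak RFU over 5 min after compound addition, scaled to 100 μM L-glutamate (100%) and 0 μM (0%); four-parameter Hill fit for EC50, max % if no plateau.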

T1 sequence (Q12879 23-1464, other chains not shown): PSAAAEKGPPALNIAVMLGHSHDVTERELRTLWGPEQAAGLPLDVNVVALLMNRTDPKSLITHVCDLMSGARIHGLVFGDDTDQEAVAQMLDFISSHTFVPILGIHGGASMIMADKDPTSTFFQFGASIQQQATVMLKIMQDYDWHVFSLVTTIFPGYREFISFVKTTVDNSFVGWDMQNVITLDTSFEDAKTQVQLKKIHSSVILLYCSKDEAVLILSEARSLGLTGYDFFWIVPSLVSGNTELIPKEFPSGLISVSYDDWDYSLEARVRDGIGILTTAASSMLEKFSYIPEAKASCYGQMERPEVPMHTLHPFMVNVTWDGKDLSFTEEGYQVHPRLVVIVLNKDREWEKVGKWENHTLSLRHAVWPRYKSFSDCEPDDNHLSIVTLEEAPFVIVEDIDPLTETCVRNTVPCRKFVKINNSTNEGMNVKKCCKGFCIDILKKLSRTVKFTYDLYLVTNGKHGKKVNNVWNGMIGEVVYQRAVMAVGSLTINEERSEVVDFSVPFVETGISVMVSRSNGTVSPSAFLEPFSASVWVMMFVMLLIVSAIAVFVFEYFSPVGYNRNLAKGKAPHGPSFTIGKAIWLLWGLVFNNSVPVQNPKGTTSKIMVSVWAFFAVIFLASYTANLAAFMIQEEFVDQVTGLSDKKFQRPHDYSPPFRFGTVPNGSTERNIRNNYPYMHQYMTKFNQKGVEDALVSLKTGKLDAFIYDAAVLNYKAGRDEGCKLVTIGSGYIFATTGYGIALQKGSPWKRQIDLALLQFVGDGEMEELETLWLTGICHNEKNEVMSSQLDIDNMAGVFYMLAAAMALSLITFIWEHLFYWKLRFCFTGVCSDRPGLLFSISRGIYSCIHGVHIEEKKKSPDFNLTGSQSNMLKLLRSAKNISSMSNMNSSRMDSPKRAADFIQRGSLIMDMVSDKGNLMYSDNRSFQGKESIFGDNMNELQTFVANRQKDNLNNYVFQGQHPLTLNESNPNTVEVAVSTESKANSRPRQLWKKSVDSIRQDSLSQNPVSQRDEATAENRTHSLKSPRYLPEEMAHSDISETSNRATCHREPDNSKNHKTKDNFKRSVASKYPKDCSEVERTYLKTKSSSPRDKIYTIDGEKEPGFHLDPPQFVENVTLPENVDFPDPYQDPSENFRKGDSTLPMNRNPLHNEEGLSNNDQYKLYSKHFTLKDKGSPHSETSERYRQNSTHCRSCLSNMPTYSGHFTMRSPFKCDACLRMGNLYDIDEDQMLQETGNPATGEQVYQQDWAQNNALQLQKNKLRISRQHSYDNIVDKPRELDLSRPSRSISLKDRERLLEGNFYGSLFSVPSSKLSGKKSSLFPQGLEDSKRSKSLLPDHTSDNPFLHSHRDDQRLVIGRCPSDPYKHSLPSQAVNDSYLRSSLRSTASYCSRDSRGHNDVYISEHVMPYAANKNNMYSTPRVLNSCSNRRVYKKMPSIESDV

SMILES | EC50 (Table 2) | Max % (Table 2) | EC50 (Table 3)
CCN(Cc1cc(=O)n2c(CC#N)c(C)sc2n1)c1ccc(F)cc1 [Example 10.17, 2-[7-[(N-ethyl-4-fluoro-anilino)methyl]-2-methyl-5-oxo-thiazolo[3,2-a]pyrimidin-3-yl]acetonitrile] | 1200 nM | 174% | –
CCc1sc2nc(Cn3nc(C(F)(F)F)cc3Cl)cc(=O)n2c1C(C)=O [compound 211, 3-acetyl-7-[[5-chloro-3-(trifluoromethyl)pyrazol-1-yl]methyl]-2-ethyl-thiazolo[3,2-a]pyrimidin-5-one] | – | – | 310 nM
Cc1sc2nc(Cn3nc(C(F)(F)F)cc3Cl)cc(=O)n2c1C(=O)C1CC1 [compound 224, 7-[[5-chloro-3-(trifluoromethyl)pyrazol-1-yl]methyl]-3-(cyclopropanecarbonyl)-2-methyl-thiazolo[3,2-a]pyrimidin-5-one] | – | – | 366 nM
Cc1sc2nc(COc3ccc(F)cc3)cc(=O)n2c1C(=O)NCC(F)(F)F [Example 1.5, 7-(4-Fluorophenoxymethyl)-2-methyl-5-oxo-N-(2,2,2-trifluoroethyl)-5H-[1,3]thiazolo[3,2-a]pyrimidine-3-carboxamide] | 23000 nM | 51.4% | –
CCN(Cc1cc(=O)n2c(-c3ccnc(N)c3)c(C)sc2n1)c1ccc(F)cc1 [Example 5.57, 3-(2-amino-4-pyridyl)-7-[(N-ethyl-4-fluoro-anilino)methyl]-2-methyl-thiazolo[3,2-a]pyrimidin-5-one] | 6400 nM | 120% | –
CCN(Cc1cc(=O)n2c([C@@H]3C[C@H]3CO)c(C)sc2n1)c1ccccn1 (relative stereo) [Example 5.7, 7-((ethyl(pyridine-2-yl)amino)methyl)-3-(trans-2-(hydroxymethyl)cyclopropyl)-2-methyl-5H-thiazolo[3,2-a] pyrimidin-5-one] | 867 nM | 160% | –
CCN(Cc1cc(=O)n2c(C3CCC3)c(C)sc2n1)c1ccc(F)cc1 [Example 10.1, 3-cyclobutyl-7-[(N-ethyl-4-fluoro-anilino)methyl]-2-methyl-thiazolo[3,2-a]pyrimidin-5-one] | 4400 nM | 130% | –
CCN(Cc1cc(=O)n2c([C@@H]3C[C@H]3CO)csc2n1)c1ccc(F)cc1 (relative stereo) [Example 5.28, 7-[(N-ethyl-4-fluoro-anilino)methyl]-3-[trans-2-(hydroxymethyl)cyclopropyl)thiazolo[3,2-a]pyrimidin-5-one] | 95.2 nM | 176% | –
CNC(=O)c1c(C)sc2nc(Cc3cccc(C(F)(F)F)c3F)cc(=O)n12 [Example 21.4] | 7400 nM | 129% | –
CCNC(=O)c1c(C)sc2nc(COc3ccc(F)cn3)cc(=O)n12 [Example 3.6, N-ethyl-7-[[(5-fluoropyridin-2-yl)oxy]methyl]-2-methyl-5-oxo-5H-[1,3]thiazolo[3,2-a]pyrimidine-3-carboxamide] | – | 68% | –
Cc1sc2nc(COc3ccc(F)cc3)cc(=O)n2c1C(=O)NO [Example 1.9, 7-((4-fluorophenoxy)methyl)-N-hydroxy-2-methyl-5-oxo-5H-thiazolo[3,2-a] pyrimidine-3-carboxamide] | – | 99.5% | –
CNC(=O)c1c(C)sc2nc(Cc3ccc(F)cc3C3CC3)cc(=O)n12 [Example 21.60, 7-[(2-cyclopropyl-4-fluoro-phenyl)methyl]-N,2-dimethyl-5-oxo-thiazolo[3,2-a]pyrimidine-3-carboxamide] | – | 78% | –
CCN(Cc1cc(=O)n2c(-c3cnccn3)c(C)sc2n1)c1ccc(F)cc1 [Example 5.27, 7-[(N-ethyl-4-fluoro-anilino)methyl]-2-methyl-3-pyrazin-2-yl-thiazolo[3,2-a]pyrimidin-5-one] | 1100 nM | 139% | –
CCN(Cc1cc(=O)n2c(-c3nc(C)cs3)c(C)sc2n1)c1ccc(F)cc1 [Example 5.49, 7-((ethyl(4-fluorophenyl)amino)methyl)-2-methyl-3-(4-methylthiazol-2-yl)-5H-thiazolo[3,2-a]pyrimidin-5-one] | 12900 nM | 127% | –
CCN(Cc1cc(=O)n2c(Cn3cccn3)c(C)sc2n1)c1ccc(F)cc1 [Example 10.14, 7-[[Ethyl(4-fluorophenyl)amino]methyl]-2-methyl-3-(1H-pyrazol-1-ylmethyl)-5H-[1,3]thiazolo[3,2-a]pyrimidin-5-one] | 1500 nM | 172% | –
Cc1sc2nc(Oc3cccc(C(F)(F)F)c3)cc(=O)n2c1C1CC1CO (stereo not shown) [compound 12, 3-[2-(Hydroxymethyl)cyclopropyl]-2-methyl-7-[3-(trifluoromethyl)phenoxy]thiazolo[3,2-a]pyrimidin-5-one] | – | – | 2050 nM
CCN(Cc1cc(=O)n2c(-c3cncc(C#N)c3)c(C)sc2n1)c1ccc(F)cc1 [Example 5.35, 5-[7-[(N-ethyl-4-fluoro-anilino)methyl]-2-methyl-5-oxo-thiazolo[3,2-a]pyrimidin-3-yl]pyridine-3-carbonitrile] | 2700 nM | 136% | –

SMILES | EC50 (Table 2) | Max % (Table 2) | EC50 (Table 3)
Cc1sc2nc(COc3ccc(F)cc3)cc(=O)n2c1C1CC1C#N (single isomer, unassigned) [Example 4.19, cis-2-[7-(4-Fluorophenoxymethyl)-2-methyl-5-oxo-5H-[1,3]thiazolo[3,2-a]pyrimidin-3-yl]cyclopropane-1-carbonitrile] | 9000 nM | 46.9% | –
CCN(Cc1cc(=O)n2c(CCC(=O)N(C)C)c(C)sc2n1)c1ccc(F)cc1 [Example 13.8, 3-[7-[(N-ethyl-4-fluoro-anilino)methyl]-2-methyl-5-oxo-thiazolo[3,2-a]pyrimidin-3-yl]-N,N-dimethyl-propanamide] | – | 61.2% | –
COc1sc2nc(Cn3nc(Cl)cc3C(F)(F)F)cc(=O)n2c1Cl [compound 218, 3-chloro-7-[[3-chloro-5-(trifluoromethyl)pyrazol-1-yl]methyl]-2-methoxy-thiazolo[3,2-a]pyrimidin-5-one] | – | – | 83000 nM
CNC(=O)c1c(C(F)(F)F)sc2nc(Cn3nc(C(F)(F)F)cc3C)cc(=O)n12 [compound 61, N-methyl-7-[[5-methyl-3-(trifluoromethyl)pyrazol-1-yl]methyl]-5-oxo-2-(trifluoromethyl)thiazolo[3,2-a]pyrimidine-3-carboxamide] | – | – | 8060 nM
CCC(=O)c1c(C(F)(F)F)sc2nc(Cn3nc(C(F)(F)F)cc3Cl)cc(=O)n12 [compound 250, 7-[[5-Chloro-3-(trifluoromethyl)pyrazol-1-yl]methyl]-3-propanoyl-2-(trifluoromethyl)thiazolo[3,2-a]pyrimidin-5-one] | – | – | 13800 nM
Cc1sc2nc(COc3ccc(F)cc3)cc(=O)n2c1C(=O)C(F)(F)F [Example 2.11, 7-(4-Fluorophenoxymethyl)-2-methyl-3-(trifluoroacetyl)-5H-[1,3]thiazolo[3,2-a]pyrimidin-5-one] | – | 87.4% | –
CCN(Cc1cc(=O)n2c(CCC(C)(C)O)c(C)sc2n1)c1ccc(F)cc1 [Example 13.9, 7-[[Ethyl(4-fluorophenyl)amino]methyl]-3-(3-hydroxy-3-methylbutyl)-2-methyl-5H-[1,3]thiazolo[3,2-a]pyrimidin-5-one] | 5000 nM | 166% | –
Cc1sc2nc(Cn3nc(C(F)(F)F)cc3Cl)cc(=O)n2c1-c1ncc[nH]1 [compound 170, 7-[[5-chloro-3-(trifluoromethyl)pyrazol-1-yl]methyl]-3-(1H-imidazol-2-yl)-2-methyl-thiazolo[3,2-a]pyrimidin-5-one] | – | – | 814 nM
CCc1cc(C(F)(F)F)nn1Cc1cc(=O)n2c(C3CC3CO)c(C)sc2n1 (stereo not shown) [Example 15.1, 7-((5-ethyl-3-(trifluoromethyl)-1H-pyrazol-1-yl)methyl)-3-(2-(hydroxymethyl)cyclopropyl)-2-methyl-5H-thiazolo[3,2-a]pyrimidin-5-one] | 2200 nM | 144% | –
CCN(Cc1cc(=O)n2c(C(=O)NC)c(C)sc2n1)c1ccc(F)cc1 [Example 10.4, 7-[(N-ethyl-4-fluoro-anilino)methyl]-N,2-dimethyl-5-oxo-thiazolo[3,2-a]pyrimidine-3-carboxamide] | 593 nM | 186% | –
CCNC(=O)c1c(C(F)(F)F)sc2nc(Cn3nc(Cl)cc3C(F)(F)F)cc(=O)n12 [compound 44, 7-[[3-chloro-5-(trifluoromethyl)pyrazol-1-yl]methyl]-N-ethyl-5-oxo-2-(trifluoromethyl)thiazolo[3,2-a]pyrimidine-3-carboxamide] | – | – | 685 nM
Cc1sc2nc(CNc3ccc(F)cc3)cc(=O)n2c1-c1cncnc1 [Example 5.13, 7-((4-fluorophenylamino)methyl)-2-methyl-3-(pyrimidin-5-yl)-5H-thiazolo[3,2-a]pyrimidin-5-one] | – | 87.9% | –
C=C(CF)c1cccc(Cc2cc(=O)n3c(C(=O)NCC)c(C)sc3n2)c1F [compound 36, N-ethyl-7-[[2-fluoro-3-[1-(fluoromethyl)vinyl]phenyl]methyl]-2-methyl-5-oxo-thiazolo[3,2-a]pyrimidine-3-carboxamide] | – | – | 1720 nM
CCN(Cc1cc(=O)n2c(-c3cncc(F)c3)c(C)sc2n1)c1ccc(F)cc1 [Example 5.24, 7-[(N-ethyl-4-fluoro-anilino)methyl]-3-(5-fluoro-3-pyridyl)-2-methyl-thiazolo[3,2-a]pyrimidin-5-one] | 731 nM | 142% | –
N#CC1CC1c1c(C(F)(F)F)sc2nc(Cn3nc(C(F)(F)F)cc3Cl)c(F)c(=O)n12 (single isomer, unassigned) [compound 277] | – | – | 155 nM
CC(=O)c1c(C)sc2nc(Cn3nc(Cl)cc3C(F)(F)F)cc(=O)n12 [compound 120, 3-acetyl-7-[[3-chloro-5-(trifluoromethyl)pyrazol-1-yl]methyl]-2-methyl-thiazolo[3,2-a]pyrimidin-5-one] | – | – | 995 nM
